The results in this text go back to patent US20160024098A1, “HYBRID NECROPTOSIS INHIBITORS” (PRESIDENT AND FELLOWS OF HARVARD COLLEGE, priority 2013, published 2016).

SMILES strings stand for the structures.

As usually defined, the EC50 is the midpoint of the concentration-response curve. Low readings indicate an effect from little substance, high ones a need for much substance.

This assay deals with FADD-deficient Jurkat cells. In words: necroptosis assay (TNF-α-induced necroptosis, CellTiter-Glo ATP-based viability). The assay is classed as cell-based. To be noted: FADD-deficient Jurkat cells treated with 10 ng/ml human TNFalpha for 24 hr, eleven concentrations. As to the method: Evaluation of necroptosis inhibitory activity can be performed using a FADD-deficient variant of human Jurkat T cells treated with TNF-α as previously described (Degterev et al., Nat. Chem. Biol. 1:112 (2005) and Jagtap et al., J. Med. Chem. 50: 1886 (2007)). For EC50 value determinations, cells can be treated with 10 ng/mL of human TNF-α in the presence of increasing concentration of test compounds for 24 hours followed by ATP-based viability assessment.
ATP-based viability assessment: Briefly, necroptosis activity can be performed using a FADD-deficient variant of human Jurkat T cells treated with TNF-α. For EC50 value determinations, cells (500,000 cells/mL, 100 μL per well in a 96-well plate) can be treated with 10 ng/mL of human TNF-α in the presence of increasing concentration of test compounds for 24 hours at 37° C. in a humidified incubator with 5% CO2 followed by ATP-based viability assessment. Stock solutions (30 mM) in DMSO can be prepared and then diluted with DMSO to give testing solutions, which were added to each test well. The final DMSO concentration can be 0.5%. Eleven compound test concentrations (0.030-100 μM) can be used, and each concentration can be done in duplicate.
Cell viability assessments can be performed using a commercial luminescent ATP-based assay kit (CellTiter-Glo, Promega, Madison, Wis.) according to the manufacturer's instructions. Briefly, 40 μL of the cell lysis/ATP detection reagent can be added to each well. Plates can be incubated on a rocking platform for 10 minutes at room temperature and luminescence was measured using a Wallac Victor 3 plate-reader (Perkin Elmer, Wellesley, Mass.). Cell viability can be expressed as a ratio of the signal in the well treated with TNF-α and compound to the signal in the well treated with compound alone in order to account for nonspecific toxicity. EC50 values can be calculated using nonlinear regression analysis of sigmoid dose-response (variable slope) curves from plots of log [I] verses viability values.
For necroptosis assay, FADD-deficient Jurkat cells were treated with 10 ng/ml human TNFalpha for 24 hr, followed by CellTiter-Glo viability assay (Promega). EC50 values were calculated using non-linear regression in GraphPad Prism software. Eleven concentrations of each compound were tested to generate dose response curves.
(Cellular ATP, detected with luciferase, serves as a proxy for viable cell number.)
Regarding `Cc1ccc(C(=O)NCCN2C(=O)NC(Cc3c[nH]c4c(Cl)cccc34)C2=O)cc1C#Cc1cnc2cccnn12` (stereo not drawn) [Compound (1)], the EC50 turned out to be 200 nM.

Turning to `Cc1ccc(C(=O)NCCN2C(=O)NC(Cc3c[nH]c4c(Cl)cccc34)C2=O)cc1C#Cc1cnc2ccccn12` (stereo not drawn) [Compound (2)], the EC50 amounted to 163 nM. In turn, `O=C(NCCN1C(=O)NC(Cc2c[nH]c3c(Cl)cccc23)C1=O)c1cccc(C#Cc2cnc3cccnn23)c1` (stereo not drawn) [Compound (3)] showed a 50% effective concentration (EC50) of 364 nM. Compound `Cc1ccc(C(=O)NCCN2C(=O)NC(Cc3c[nH]c4c(Cl)cccc34)C2=O)cc1CCc1cnc2cccnn12` (stereo not drawn) [Compound (8)] yielded an EC50 of 1770 nM. Turning to `Cc1ccc(CCCCN2C(=O)NC(Cc3c[nH]c4c(Cl)cccc34)C2=O)cc1C#Cc1cnc2cccnn12` (stereo not drawn) [Compound (29)], a half-maximal effect (EC50) was put at 9.9 nM. In the case of `Cc1ccc(SCCN2C(=O)NC(Cc3c[nH]c4c(Cl)cccc34)C2=O)cc1C#Cc1cnc2cccnn12` (stereo not drawn) [Compound (30)], the 50% effective concentration (EC50) was determined as 80.4 nM.

As for `Cc1ccc(CCN2C(=O)NC(Cc3c[nH]c4c(Cl)cccc34)C2=O)cc1C#Cc1cnc2cccnn12` (stereo not drawn) [Compound (31)], the EC50 came out at 136 nM.

The compound `Cc1ccc(OCCN2C(=O)NC(Cc3c[nH]c4c(Cl)cccc34)C2=O)cc1C#Cc1cnc2cccnn12` (stereo not drawn) [Compound (32)] gave a concentration giving a half-maximal response (EC50) of 134 nM. In turn, `Cc1ccc(CCCN2C(=O)NC(Cc3c[nH]c4c(Cl)cccc34)C2=O)cc1C#Cc1cnc2cccnn12` (stereo not drawn) [Compound (33)] gave an EC50 of 74.4 nM. `Cc1ccc(CCCCCN2C(=O)NC(Cc3c[nH]c4c(Cl)cccc34)C2=O)cc1C#Cc1cnc2cccnn12` (stereo not drawn) [Compound (34)] came in with a half-maximal effective concentration (EC50) of 185 nM. Compound `Cc1cc(CCCCN2C(=O)NC(Cc3c[nH]c4c(Cl)cccc34)C2=O)ccc1C#Cc1cnc2cccnn12` (stereo not drawn) [Compound (35)] yielded an EC50 of 299 nM. Turning to `CNC(=O)c1cc(Oc2ccc(NC(=O)CCN3C(=O)NC(Cc4c[nH]c5c(Cl)cccc45)C3=O)c(F)c2)ccn1` (stereo not drawn) [Compound (36)], the 50% effective concentration (EC50) worked out at 19300 nM.

Regarding `CNC(=O)c1cc(Oc2ccc(CCCN3C(=O)NC(Cc4c[nH]c5c(Cl)cccc45)C3=O)c(F)c2)ccn1` (stereo not drawn) [Compound (37)], the EC50 is 24500 nM. Regarding `CNC(=O)c1cc(Oc2ccc(NC(=O)N3C(=O)NC(Cc4c[nH]c5c(Cl)cccc45)C3=O)c(F)c2)ccn1` (stereo not drawn) [Compound (38)], the “EC50, nM in necroptosis assay” value is on record as “INACTIVE”. Compound `O=C1NC(Cc2c[nH]c3c(Cl)cccc23)C(=O)N1CCC#Cc1cnc2cccnn12` (stereo not drawn) [Compound (41)] displayed a half-maximal effective concentration (EC50) of 745 nM.
